For test [1], the target named is T1, HIV-1 integrase (Human immunodeficiency virus type 1 group M subtype B, UniProt P04585).
T1 construct: Strand Transfer Catalyzed by Recombinant Integrase
Kind of test: HIV integrase assay: strand transfer catalyzed by recombinant integrase. In kind it is biochemical. Conditions: inhibition of strand transfer activity. How it is done:
Assays for the strand transfer activity of HIV-1 integrase were conducted in accordance with WO 02/30930 for recombinant integrase. […] For example, the compounds prepared in Examples 1 to 4 were tested in the integrase assay and found to have the IC50 values in Table B.
Further description on conducting the assay using preassembled complexes is found in Wolfe, A. L. et al., J. Virol. 1996, 70: 1424-1432, Hazuda et al., J. Virol. 1997, 71: 7005-7011; Hazuda et al., Drug Design and Discovery 1997, 15: 17-24; and Hazuda et al., Science 2000, 287: 646-650.

Test [2] concerns HIV. Kind of test: Inhibition of acute HIV infection, single cycle infectivity ("vertical") assay in HeLa P4-2 cells. Conditions: Human immunodeficiency virus 1, IIIB / NL43, HeLaP4-2. In kind it is cell-based. Here is the method: An assay for measuring the inhibition of acute HIV infection with HeLa P4-2 cells in a single cycle infectivity assay (alternatively referred to as the “vertical” assay) was conducted in accordance with Joyce, J. G., et al., J. Biol. Chem. 2002, 277, 45811, Hazuda, D. J. et al., Science 2000, 287, 646, and Kimpton, J. et al, J. Virol. 1992, 66, 2232. Infectious virus was produced by transfecting 293T cells with HIV proviral DNA in which the integrase gene was derived from a IIIB isolate and the remainder of the HIV genome was derived from the NL4-3 isolate. […] For example, the compounds of Examples 1 to 4 were tested in this assay and found to have the IC50 values in Table C.

Turning to `C=CCc1c(O)c(=O)c2c(n1C)CCN(Cc1ccc(F)cc1)C2=O` [Example 2, 2-Allyl-6-(4-fluorobenzyl)-3-hydroxy-1-methyl-7,8-dihydro-1,6-naphthyridine-4,5(1H,6H)-dione], the values for the IC50 in test [1] and in test [2] were 100 nM and 5000 nM, respectively.
The matching figures for `O=C1c2c(occ(O)c2=O)CCN1Cc1ccc(F)cc1` [Example 1, 6-(4-Fluorobenzyl)-3-hydroxy-7,8-dihydro-4H-pyrano[3,2-c]pyridine-4,5(6H)-dione]: 3200 nM and 43000 nM.
For `CC1CCCCn2c3c(c(=O)c(O)c21)C(=O)N(Cc1ccc(F)cc1)CC3` (centres unmarked) [Example 4, 3-(4-Fluorobenzyl)-6-hydroxy-7-methyl-2,3,8,9,10,11-hexahydroazepino[1,2-a]-1,6-napthyridine-4,5(1H,7H)-dione], in that order: 120 nM and 5000 nM.
For `C=CCCn1c2c(c(=O)c(O)c1C(C)C=C)C(=O)N(Cc1ccc(F)cc1)CC2` (centres unmarked) [Example 3, 1-But-3-en-1-yl-6-(4-fluorobenzyl)-3-hydroxy-2-(1-methylprop-2-en-1-yl)-7,8-dihydro-1,6-napthyridine-4,5(1H,6H)-dione], in that order: 100 nM and 1000 nM.
